Reference: patent publication US20110319603A1, “METHOD FOR FLU[…] PROTEIN” (OSAKA UNIVERSITY, priority 2009, published 2011)

Assays:
[1] = tested on: MBP-PYP expressed in HEK293T cells; assay: Labeling reaction with CATP in cultured cell, MBP-PYP (fluorescence microscopy); assay type: cell-based, Halorhodospira halophila; conditions: CATP 5 μM, 30 minutes
Procedure: (§1) A plasmid was prepared in which a gene MBP-PYP obtained by fusing a maltose binding protein (MBP) with a PYP was introduced into the multicloning site of pcDNA3.1, which was a mammalian expression vector. Furthermore, in order to express a PYP on the cell surface, a plasmid was prepared in which a gene PYP-TM obtained by fusing a PYP with the transmembrane domain of a platelet-derived growth factor receptor (PDGFR) was introduced into the multicloning site of pcDNA3.1, which was a mammalian expression vector. HEK293T cells were transfected with these plasmids by using lipofectamine 2000. After transfection with the plasmids, the HEK293T cells were allowed to stand at 37° C. for 36 hours and then washed with a phosphoric acid buffer (PBS). A culture medium containing CATP (5 μM) was added thereto, which then was allowed to stand for 30 minutes.

PYP [2] = target: T1, PYP (Halorhodospira halophila, UniProt P16113); assay: Reaction between PYP and FCTP, analyzed by SDS-PAGE (CBB-stained and fluorescent image); assay type: binding
T1 construct: His tag (with enterokinase cleavage site) (N, cleaved yes); made in house; host or cells: E. coli BL21 (DE3), pET-21b(+) (pET-PYP)
T1 sequence (P16113 1-125): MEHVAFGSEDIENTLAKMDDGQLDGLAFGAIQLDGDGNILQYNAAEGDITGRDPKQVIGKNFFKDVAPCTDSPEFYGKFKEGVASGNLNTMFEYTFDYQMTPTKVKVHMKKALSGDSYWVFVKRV
Procedure: In Tris buffer (20 mM Tris-HCl, 150 mM NaCl, 1 mM TCEP (pH 8.0)), 5 μM of PYP was reacted with 12.5 μM of compound FCTP at 37° C. for 24 hours. After completion of the reaction, the result was analyzed by SDS-PAGE (20% acrylamide separation gel). […] With reference to FIG. 1(b), similarly in the fluorescent image, fluorescence was observed.

[3] = tested on: PYP-TM expressed on HEK293T cells; assay: Labeling reaction with CATP in cultured cell, PYP-TM (fluorescence microscopy); assay type: cell-based, Halorhodospira halophila; conditions: CATP 5 μM, 30 minutes
Procedure: as §1

PYP [4] = target: T1, PYP; assay: Reaction of compound FCTP with PYP in HEK293T cell lysate, SDS-PAGE; assay type: binding
Procedure: In a HEK293T cell lysate dissolved in Tris buffer (20 mM Tris-HCl, 150 mM NaCl, 1 mM TCEP (pH 8.0)), 5 μM of PYP was reacted with 50 μM of compound FCTP at 37° C. for 30 minutes in the presence or absence of 10 mM MESNa. After completion of the reaction, it was analyzed by SDS-PAGE (20% acrylamide separation gel). […] On the other hand, the fluorescent band on the high molecular weight side disappeared upon addition of MESNa (10 mM), which was a type of thiol compound. It was confirmed that an addition of a certain amount of free thiol allowed labeling to be carried out specifically in the cell lysate.

PYP [5] = target: T1, PYP; assay: Fluorescent properties of FCTP (fluorescence and excitation spectra with and without PYP); conditions: 8 μM compound, Tris buffer pH 8.0, 37° C.
Procedure: In order to examine the fluorescent properties of compound FCTP bound to the PYP, Tris buffer (20 mM Tris-HCl, 150 mM NaCl, 1 mM TCEP (pH 8.0)), the fluorescence and excitation spectra were measured at 37° C.

[6] = tested on: PYP-TM expressed on HEK293T cells; assay: Labeling reaction with FCTP in cultured cell (fluorescence microscopy); assay type: cell-based, Halorhodospira halophila; conditions: FCTP 20 μM, 30 minutes
Procedure: In order to express a PYP on the cell surface, a plasmid was prepared in which a gene PYP-TM obtained by fusing a PYP with the transmembrane domain of a platelet-derived growth factor receptor (PDGFR) was introduced into the multicloning site of pcDNA3.1, which is a mammalian expression vector. HEK293T cells were transfected with this plasmid by using lipofectamine 2000. After transfection with the plasmid, the HEK293T cells were allowed to stand at 37° C. for 36 hours and then washed with a phosphoric acid buffer (PBS). A culture medium containing FCTP (20 μM) was added thereto, which then was allowed to stand for 30 minutes. […] With the fluorescence microscope having an excitation wavelength of 488 nm, the cells were observed using a fluorescent filter of 510 to 550 nm.

Compound	fluorescent labeling in cells in which MBP-PYP was not expressed [1]	fluorescent labeling in cells in which MBP-PYP was expressed ([1]; excitation 436 nm)	thioester bond between the PYP and compound upon addition of DTT (PYP [2]; DTT (100 mM) added after labeling)	fluorescent labeling in cells where PYP-TM was not expressed [3]	fluorescent labeling in PYP-TM expressed cells ([3]; excitation 436 nm)	fluorescent labeling of PYP in cell lysate (PYP [4]; 5 μM PYP, 50 μM compound, 37° C., 30 minutes)	fluorescent band in the high molecular weight range (non-specific labeling) in cell lysate (PYP [4]; absence of MESNa)	fluorescent band on the high molecular weight side in cell lysate (PYP [4]; addition of MESNa (10 mM))	labeling of the PYP (slowly migrating band, fluorescence on gel) (PYP [2]; 5 μM PYP, 12.5 μM compound, Tris buffer pH 8.0, 37° C., 24 hours)	fluorescence intensity of compound in the presence of PYP (PYP [5]; 5 μM PYP, time-dependent)	fluorescence intensity of compound alone (PYP [5]; no PYP, excitation at 500 nm)	fluorescent labeling in cells where PYP-TM was not expressed [6]	fluorescent labeling in PYP-TM expressed cells ([6]; excitation 488 nm)
[N-]=[N+]=NCCOCCOCCOCc1cc(O)cc2oc(=O)c(C(=O)Sc3ccccc3)cc12 [CATP]	not observed	observed	hydrolyzed by a large excess of DTT	neither fluorescent labeling with FCTP nor that with CATP was observed	observed								
O=C(NCc1cn(COCCOCCOCc2cc(O)cc3oc(=O)c(C(=O)Sc4ccccc4)cc23)nn1)c1ccc(C(=O)O)c(-c2c3ccc(=O)cc-3oc3cc(O)ccc23)c1 [FCTP]						fluorescence was observed in the vicinity of the PYP band	another fluorescent band was observed in the high molecular weight range	disappeared	able to label the PYP	increased in the presence of the PYP with the passage of time	very weak	neither fluorescent labeling with FCTP nor that with CATP was observed	observed
